ChEMBL document CHEMBL5661979, “Pharmacological inhibition of BMK1 suppresses tumor growth through promyelocytic leukemia protein” (Cancer Cell, 2010)

What was measured:
Assay type in all cases: subcellular
[1] = biological target: Insulin receptor (Homo sapiens, UniProt P06213); assay: Inhibition of INSR in human HeLa cells lysate pre incubated for 15 mins followed by ADP acyl phosphate probe addition and measured after 10 mins by LC-MS/MS analysis
[2] = biological target: Serine/threonine-protein kinase 16 (Homo sapiens, UniProt O75716); assay: Inhibition of MPSK1 in human HeLa cells lysate at 50 uM pre incubated for 15 mins followed by ATP acyl phosphate probe addition and measured after 10 mins by LC-MS/MS analysis relative to control; conditions: time 25.0 min
[3] = biological target: T1, Dual specificity mitogen-activated protein kinase kinase 3 (Homo sapiens) (UniProt P46734); assay: Inhibition of MAP2K3 in human HeLa cells lysate at 2 uM pre incubated for 15 mins followed by ATP acyl phosphate probe addition and measured after 10 mins by LC-MS/MS analysis relative to control; conditions: time 25.0 min
T1 sequence (whole entry): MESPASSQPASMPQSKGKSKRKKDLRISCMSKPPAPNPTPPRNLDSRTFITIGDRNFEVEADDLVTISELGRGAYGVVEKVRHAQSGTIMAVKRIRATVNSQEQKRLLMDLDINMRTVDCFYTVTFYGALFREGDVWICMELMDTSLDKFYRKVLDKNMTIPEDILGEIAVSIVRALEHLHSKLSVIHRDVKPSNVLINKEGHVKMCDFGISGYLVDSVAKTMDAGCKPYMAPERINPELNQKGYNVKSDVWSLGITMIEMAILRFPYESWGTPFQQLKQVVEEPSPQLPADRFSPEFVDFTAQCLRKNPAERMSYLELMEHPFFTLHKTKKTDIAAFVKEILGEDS

Chain of Serine/threonine-protein kinase 16 (O75716 whole entry): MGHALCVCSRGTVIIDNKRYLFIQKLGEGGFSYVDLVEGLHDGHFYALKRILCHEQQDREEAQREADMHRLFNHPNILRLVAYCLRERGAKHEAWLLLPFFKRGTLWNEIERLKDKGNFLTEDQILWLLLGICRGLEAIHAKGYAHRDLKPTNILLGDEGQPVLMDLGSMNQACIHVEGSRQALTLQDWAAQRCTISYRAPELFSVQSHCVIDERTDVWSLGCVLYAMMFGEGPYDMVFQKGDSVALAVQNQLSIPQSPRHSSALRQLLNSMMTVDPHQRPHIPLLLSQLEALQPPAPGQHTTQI
Chain of Insulin receptor (P06213 28-758 limits assumed): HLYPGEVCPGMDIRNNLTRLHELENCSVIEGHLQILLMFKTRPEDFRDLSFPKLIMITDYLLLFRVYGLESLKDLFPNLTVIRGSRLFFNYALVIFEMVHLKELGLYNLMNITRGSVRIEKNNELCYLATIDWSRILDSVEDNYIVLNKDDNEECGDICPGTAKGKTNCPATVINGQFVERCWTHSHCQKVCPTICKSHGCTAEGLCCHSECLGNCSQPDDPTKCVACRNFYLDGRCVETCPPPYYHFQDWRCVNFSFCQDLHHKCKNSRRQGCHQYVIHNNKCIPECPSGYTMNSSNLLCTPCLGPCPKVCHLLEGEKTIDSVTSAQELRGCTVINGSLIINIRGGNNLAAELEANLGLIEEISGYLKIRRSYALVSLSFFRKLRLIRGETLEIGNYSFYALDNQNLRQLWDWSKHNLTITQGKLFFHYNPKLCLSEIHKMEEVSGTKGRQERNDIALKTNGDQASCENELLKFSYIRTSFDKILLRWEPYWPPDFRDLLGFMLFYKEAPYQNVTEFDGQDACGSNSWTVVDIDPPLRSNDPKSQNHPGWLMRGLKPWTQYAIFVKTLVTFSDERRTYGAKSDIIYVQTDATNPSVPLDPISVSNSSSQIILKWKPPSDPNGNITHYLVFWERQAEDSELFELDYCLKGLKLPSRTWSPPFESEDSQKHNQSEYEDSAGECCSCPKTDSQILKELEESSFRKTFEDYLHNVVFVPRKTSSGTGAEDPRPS
Chain of Insulin receptor (P06213 763-1382 limits assumed): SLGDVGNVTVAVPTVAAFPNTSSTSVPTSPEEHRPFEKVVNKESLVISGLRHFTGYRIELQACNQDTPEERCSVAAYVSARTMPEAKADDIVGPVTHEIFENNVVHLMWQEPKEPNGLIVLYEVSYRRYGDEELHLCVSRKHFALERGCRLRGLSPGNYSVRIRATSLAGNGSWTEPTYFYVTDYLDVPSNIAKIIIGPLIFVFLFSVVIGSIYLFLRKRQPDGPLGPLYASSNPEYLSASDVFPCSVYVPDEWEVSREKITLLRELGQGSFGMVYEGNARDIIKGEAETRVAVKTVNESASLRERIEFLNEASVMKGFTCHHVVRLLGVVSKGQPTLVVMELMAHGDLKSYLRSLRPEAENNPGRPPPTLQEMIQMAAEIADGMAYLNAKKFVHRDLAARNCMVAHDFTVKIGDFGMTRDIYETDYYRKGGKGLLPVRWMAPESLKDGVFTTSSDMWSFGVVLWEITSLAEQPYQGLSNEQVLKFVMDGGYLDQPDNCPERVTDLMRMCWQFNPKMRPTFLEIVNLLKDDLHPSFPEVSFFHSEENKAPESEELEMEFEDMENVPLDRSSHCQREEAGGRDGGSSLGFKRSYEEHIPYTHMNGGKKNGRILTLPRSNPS

SMILES: CCOc1cc(N2CCC(O)CC2)ccc1Nc1ncc2c(n1)N(C)c1ccccc1C(=O)N2C
- IC50 [1]: > 50 µM
- inhibition [2]: -8.9%
- inhibition [3]: 13.5%
